{"source": "patent US20260374773A1", "about": "“MULTI-CYCLIC IRAK AND FLT3 INHIBITING COMPOUNDS AND USES THEREOF” (CHILDREN'S HOSPITAL MEDICAL CENTER, priority 2022, published 2026)", "target": "T1, FLT3 (Homo sapiens, UniProt P36888)", "T1 sequence (P36888 27-993)": "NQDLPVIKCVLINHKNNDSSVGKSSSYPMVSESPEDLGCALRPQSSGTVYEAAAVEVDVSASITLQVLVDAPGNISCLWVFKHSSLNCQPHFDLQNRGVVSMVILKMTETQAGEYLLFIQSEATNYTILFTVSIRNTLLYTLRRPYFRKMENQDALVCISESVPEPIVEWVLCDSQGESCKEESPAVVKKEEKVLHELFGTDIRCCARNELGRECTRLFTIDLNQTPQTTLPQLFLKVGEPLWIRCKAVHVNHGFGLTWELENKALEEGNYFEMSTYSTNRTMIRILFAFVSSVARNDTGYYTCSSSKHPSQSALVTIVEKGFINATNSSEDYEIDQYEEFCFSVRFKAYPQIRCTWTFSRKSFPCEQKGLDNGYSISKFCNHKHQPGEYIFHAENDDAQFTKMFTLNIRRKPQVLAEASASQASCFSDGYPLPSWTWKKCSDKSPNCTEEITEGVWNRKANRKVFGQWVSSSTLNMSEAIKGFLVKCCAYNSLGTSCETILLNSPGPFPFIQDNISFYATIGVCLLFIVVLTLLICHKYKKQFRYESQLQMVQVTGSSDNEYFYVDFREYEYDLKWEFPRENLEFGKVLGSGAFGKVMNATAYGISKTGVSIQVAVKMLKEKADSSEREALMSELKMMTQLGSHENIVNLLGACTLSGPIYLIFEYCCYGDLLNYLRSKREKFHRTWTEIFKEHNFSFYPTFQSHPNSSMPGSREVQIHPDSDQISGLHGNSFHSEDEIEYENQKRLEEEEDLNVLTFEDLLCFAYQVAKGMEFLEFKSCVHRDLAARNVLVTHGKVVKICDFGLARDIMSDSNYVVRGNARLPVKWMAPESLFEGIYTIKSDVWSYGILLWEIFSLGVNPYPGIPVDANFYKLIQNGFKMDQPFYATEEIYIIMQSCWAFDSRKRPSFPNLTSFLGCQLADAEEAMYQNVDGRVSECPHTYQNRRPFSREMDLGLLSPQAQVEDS", "experiment": "RBC HotSpot kinase inhibition assay, FLT3", "format": "biochemical", "details": "isolated kinase, 33P-ATP, 2 h", "procedure,_shortened": "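Isolated kinases, possibly truncated or lacking regulatory receptor domains, in 20 mM Hepes pH 7.5, 10 mM MgCl2, 1 mM EGTA, 0.01% Brij35, 2 mM DTT, 1% DMSO with substrate and cofactors. Compound preincubated 20 min, then ^33P-ATP added; 2 h at room temperature, read by P81 filter binding.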", "data": [{"smiles": "COc1cn2ncc(-c3ccnc(N[C@H]4CNCC[C@@H]4F)n3)c2nc1C(C)(C)O", "note": "[Compound 3a, 2-(3-(2-(((3S,4S)-4-fluoropiperidin-3-yl)amino)pyrimidin-4-yl)-6-methoxypyrazolo[1,5-a]pyrimidin-5-yl)propan-2-ol]", "values": [{"measurement": "IC50", "setting": "Table 17", "result": 0.7, "unit": "nM"}]}, {"smiles": "COc1cn2ncc(-c3nc(N[C@H]4CNCC[C@@H]4F)c(C#N)cc3F)c2nc1C(C)(C)O", "note": "[Compound 10, 5-fluoro-2-(((3S,4S)-4-fluoropiperidin-3-yl)amino)-6-(5-(2-hydroxypropan-2-yl)-6-methoxypyrazolo[1,5-a]pyrimidin-3-yl)nicotinonitrile]", "values": [{"measurement": "IC50", "setting": "Table 11", "result": "< 0.5", "unit": "nM"}]}, {"smiles": "COc1cn2ncc(-c3nc(N[C@H]4CNCC[C@@H]4F)ncc3F)c2nc1C1CC1", "note": "[Compound 15a, 4-(5-cyclopropyl-6-methoxypyrazolo[1,5-a]pyrimidin-3-yl)-5-fluoro-N-((3S,4S)-4-fluoropiperidin-3-yl)pyrimidin-2-amine]", "values": [{"measurement": "IC50", "setting": "Table 17", "result": 0.7, "unit": "nM"}]}, {"smiles": "COc1cn2ncc(-c3cccc(N[C@H]4CNCC[C@@H]4F)n3)c2nc1C1CC1", "note": "[Compound 21, 6-(5-cyclopropyl-6-methoxypyrazolo[1,5-a]pyrimidin-3-yl)-N-((3S,4S)-4-fluoropiperidin-3-yl)pyridin-2-amine]", "values": [{"measurement": "IC50", "setting": "Table 11", "result": "< 0.5", "unit": "nM"}]}]}
